Melting point and Ki data for 37 compounds are collected here from patent publication US20060063759A1, “Tricyclic steroid hormone nuclear receptor modulators” (priority 2002, published 2006).

Data set [1] concerns the target T1, glucocorticoid receptor (Homo sapiens, UniProt P04150).
T1 construct: containing 50-200 ug of A549 cell extract and 1.86 nM [^3H]-dexamethasone; host or cells: A549 human lung epithelial cells (sonicated cell extract)
T1 sequence (P04150 1-777): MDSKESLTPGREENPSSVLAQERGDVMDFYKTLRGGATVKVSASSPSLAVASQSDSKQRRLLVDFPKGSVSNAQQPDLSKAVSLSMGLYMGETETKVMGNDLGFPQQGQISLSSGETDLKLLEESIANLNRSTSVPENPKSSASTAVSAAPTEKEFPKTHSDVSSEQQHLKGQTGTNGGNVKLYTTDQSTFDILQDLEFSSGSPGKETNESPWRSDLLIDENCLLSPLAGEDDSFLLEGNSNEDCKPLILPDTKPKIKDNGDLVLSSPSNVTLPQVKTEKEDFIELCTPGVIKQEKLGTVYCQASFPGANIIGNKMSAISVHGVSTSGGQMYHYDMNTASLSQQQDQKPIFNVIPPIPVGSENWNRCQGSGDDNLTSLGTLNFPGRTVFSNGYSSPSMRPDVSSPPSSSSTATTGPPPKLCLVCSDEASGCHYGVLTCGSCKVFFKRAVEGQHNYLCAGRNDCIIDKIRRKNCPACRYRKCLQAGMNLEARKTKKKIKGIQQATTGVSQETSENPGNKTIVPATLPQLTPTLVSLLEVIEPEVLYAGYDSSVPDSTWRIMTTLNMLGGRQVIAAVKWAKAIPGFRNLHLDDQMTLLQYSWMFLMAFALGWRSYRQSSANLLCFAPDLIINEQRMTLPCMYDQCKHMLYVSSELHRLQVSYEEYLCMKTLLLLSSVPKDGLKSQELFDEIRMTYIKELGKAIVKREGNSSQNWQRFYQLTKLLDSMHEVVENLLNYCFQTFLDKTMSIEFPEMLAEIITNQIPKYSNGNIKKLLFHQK
The data set can be described thus: Glucocorticoid Receptor Binding Assay ([3H]-dexamethasone, A549 cell extract). The following applies: [3H]-dexamethasone binding, read-out: GR Ki. The method, boiled down: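 A549 cell extract (50–200 ug) incubated with 1.86 nM [3H]-dexamethasone and test compound for 16 h at 4 °C in Tris-HCl pH 7.2 buffer with glycerol and molybdate. Unbound radioligand removed by dextran-coated charcoal, then supernatant bound counts measured by scintillation.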

Data set [2] deals with T2, human MR (Homo sapiens, UniProt P08235).
T2 construct: The full length human MR gene is cloned from a human kidney or human brain cDNA library; His tag from the pAcHLT vector (own knowledge); made in house; host or cells: Sf9 insect cells (baculovirus, pAcHLT transfer vector)
T2 sequence (P08235 1-984): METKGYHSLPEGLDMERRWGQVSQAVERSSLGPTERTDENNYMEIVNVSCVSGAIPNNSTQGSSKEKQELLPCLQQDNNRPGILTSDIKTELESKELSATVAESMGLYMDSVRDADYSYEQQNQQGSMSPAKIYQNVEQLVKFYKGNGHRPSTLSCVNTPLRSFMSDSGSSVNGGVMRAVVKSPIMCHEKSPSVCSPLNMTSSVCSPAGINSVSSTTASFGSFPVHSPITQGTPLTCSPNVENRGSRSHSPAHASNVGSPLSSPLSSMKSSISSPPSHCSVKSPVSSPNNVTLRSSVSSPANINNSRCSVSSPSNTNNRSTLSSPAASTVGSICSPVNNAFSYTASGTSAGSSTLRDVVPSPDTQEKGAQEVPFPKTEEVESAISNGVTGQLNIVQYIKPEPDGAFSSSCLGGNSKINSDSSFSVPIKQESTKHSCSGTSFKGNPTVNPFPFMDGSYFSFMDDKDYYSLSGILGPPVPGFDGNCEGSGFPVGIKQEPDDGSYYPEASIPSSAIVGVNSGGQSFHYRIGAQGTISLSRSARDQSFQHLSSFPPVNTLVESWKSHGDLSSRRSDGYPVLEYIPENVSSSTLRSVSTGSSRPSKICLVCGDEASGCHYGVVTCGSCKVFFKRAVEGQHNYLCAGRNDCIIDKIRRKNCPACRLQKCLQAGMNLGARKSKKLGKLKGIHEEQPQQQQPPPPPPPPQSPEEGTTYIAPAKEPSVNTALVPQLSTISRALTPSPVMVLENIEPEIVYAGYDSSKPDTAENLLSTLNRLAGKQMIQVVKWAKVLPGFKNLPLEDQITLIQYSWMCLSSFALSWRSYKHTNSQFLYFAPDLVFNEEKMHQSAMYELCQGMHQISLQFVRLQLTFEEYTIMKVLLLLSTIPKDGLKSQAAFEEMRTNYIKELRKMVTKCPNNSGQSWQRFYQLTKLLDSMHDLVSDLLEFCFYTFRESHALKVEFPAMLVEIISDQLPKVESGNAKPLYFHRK
The data set can be described thus: Mineralocorticoid Receptor Binding Assay ([3H]-aldosterone). The method, boiled down: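 Lysate supernatant of Sf9 cells expressing full-length human MR (20-25 μg protein) was incubated with 0.5 nM [3H]-aldosterone and test compound in molybdate/Tris/phosphate/glycerol buffer, pH 7.5, ~16 h at 4 °C. Bound ligand was filtered and counted by scintillation; IC50 is the concentration halving [3H]-aldosterone binding.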

Setting [3] is: [3H]-aldosterone binding, human MR expressed in Sf9 cells, read-out: MR Ki.

Each structure is given as a SMILES string. Where two headings read alike, the source gives them in different places. Bounds are passed on as bounds.

`O=S(=O)(c1ccccc1C=C1c2ccccc2CCc2ccccc21)N1CCOCC1` [Example 8, 4-[2-(10,11-Dihydro-dibenzo[a,d]cyclohepten-5-ylidenemethyl)-benzenesulfonyl]-morpholine]: the melting point stood at 139.3 °C.
The same measure, in the same setting: the result for `Cc1cc(S(=O)(=O)N(C)C)c(C=C2c3ccccc3CCc3ccccc32)cc1Cl` [Example 10, 4-Chloro-2-(10,11-dihydro-dibenzo[a,d]cyclohepten-5-ylidenemethyl)-5,N,N-trimethylbenzenesulfonamide] reads 199.9 °C.
Consider `CCC/C(=C1\c2ccccc2COc2ccccc21)c1cccc(NS(C)(=O)=O)c1` [Example 801], for which the Ki in data set [1] and in data set [2] (setting [3]) was less than 0.5 µM throughout.
As for `CCC/C(=C1/c2ccccc2COc2ccccc21)c1cccc(NS(C)(=O)=O)c1` [Example 802], the Ki in data set [1] and in data set [2] (setting [3]) was less than 0.5 µM throughout.
As to `C/C(=C1/c2ccc(Cl)cc2COc2cc(F)ccc21)c1cccc(NS(C)(=O)=O)c1` [Example 803], the Ki in data set [1] and in data set [2] (setting [3]) was less than 0.5 µM each time.
For the compound `C/C(=C1\c2ccc(Cl)cc2COc2cc(F)ccc21)c1cccc(NS(C)(=O)=O)c1` [Example 804], the Ki in data set [1] and in data set [2] (setting [3]) was less than 0.5 µM in each case.
Consider `CS(=O)(=O)Nc1cccc(/C(F)=C2\c3ccccc3COc3ccccc32)c1` [Example 806], for which the Ki in data set [1] and in data set [2] (setting [3]) was less than 0.5 µM throughout.
In the case of `C/C(=C1/c2ccccc2COc2cc(F)ccc21)c1cccc(NS(C)(=O)=O)c1` [Example 807], the Ki in data set [1] and in data set [2] (setting [3]) was less than 0.5 µM in each case.
`C/C(=C1\c2ccccc2COc2cc(F)ccc21)c1cccc(NS(C)(=O)=O)c1` [Example 808]: the Ki in data set [1] and in data set [2] (setting [3]) was less than 0.5 µM in each case.
In the case of `C/C(=C1/c2ccc(F)cc2COc2cc(F)ccc21)c1cccc(NS(C)(=O)=O)c1` [Example 809], the inhibition constant (Ki) in data set [1] and in data set [2] (setting [3]) was less than 0.5 µM throughout.
For `C/C(=C1\c2ccc(F)cc2COc2cc(F)ccc21)c1cccc(NS(C)(=O)=O)c1` [Example 810], the Ki in data set [1] and in data set [2] (setting [3]) was less than 0.5 µM in each case.
For the compound `CC/C(=C1\c2ccccc2COc2cc(F)ccc21)c1cccc(NS(C)(=O)=O)c1` [Example 811], the inhibitory constant (Ki) in data set [1] and in data set [2] (setting [3]) was less than 0.5 µM throughout.
As for `CC/C(=C1/c2ccccc2COc2cc(F)ccc21)c1cccc(NS(C)(=O)=O)c1` [Example 812], the Ki in data set [1] and in data set [2] (setting [3]) was less than 0.5 µM each time.
Consider `C/C(=C1\c2ccccc2COc2cc(OCC3CC3)ccc21)c1cccc(NS(C)(=O)=O)c1` [Example 813], for which the Ki in data set [1] and in data set [2] (setting [3]) was less than 0.5 µM each time.
Consider `C/C(=C1/c2ccccc2COc2cc(OCC3CC3)ccc21)c1cccc(NS(C)(=O)=O)c1` [Example 814], for which the inhibition constant (Ki) in data set [1] and in data set [2] (setting [3]) was less than 0.5 µM throughout.
On to `COc1ccc2c(c1)COc1ccccc1/C2=C(/C)c1cccc(NS(C)(=O)=O)c1` [Example 817], for which the inhibitory constant (Ki) in data set [1] and in data set [2] (setting [3]) was less than 0.5 µM each time.
With `COc1ccc2c(c1)COc1ccccc1/C2=C(\C)c1cccc(NS(C)(=O)=O)c1` [Example 818], the Ki in data set [1] and in data set [2] (setting [3]) was less than 0.5 µM in each case.
In the case of `COc1ccc2c(c1)COc1cc(F)ccc1/C2=C(/C)c1cccc(NS(C)(=O)=O)c1` [Example 819], the Ki in data set [1] and in data set [2] was less than 0.5 µM in each case.
With `COc1ccc2c(c1)COc1cc(F)ccc1/C2=C(\C)c1cccc(NS(C)(=O)=O)c1` [Example 820], the Ki in data set [1] and in data set [2] was less than 0.5 µM in each case.
Consider `CC/C(=C1/c2ccc(OC)cc2COc2ccccc21)c1cccc(NS(C)(=O)=O)c1` [Example 821], for which the Ki in data set [1] and in data set [2] (setting [3]) was less than 0.5 µM in each case.
Take `CC/C(=C1\c2ccc(OC)cc2COc2ccccc21)c1cccc(NS(C)(=O)=O)c1` [Example 822]: the Ki in data set [1] and in data set [2] (setting [3]) was less than 0.5 µM each time.
Turning to `CC/C(=C1/c2ccc(OC)cc2COc2cc(F)ccc21)c1cccc(NS(C)(=O)=O)c1` [Example 823], the inhibition constant (Ki) in data set [1] and in data set [2] (setting [3]) was less than 0.5 µM each time.
For the compound `CC/C(=C1\c2ccc(OC)cc2COc2cc(F)ccc21)c1cccc(NS(C)(=O)=O)c1` [Example 824], the inhibitory constant (Ki) in data set [1] and in data set [2] (setting [3]) was less than 0.5 µM throughout.
With `COc1ccc2c(c1)CCc1cc(C)ccc1C2=C(C)c1cccc(NS(C)(=O)=O)c1` [Example 827], the inhibition constant (Ki) in data set [1] and in data set [2] (setting [3]) was less than 0.5 µM throughout.
For the compound `COc1ccc2c(c1)CCc1cc(C)ccc1/C2=C(/C)c1cccc(NS(C)(=O)=O)c1` [Example 828], the Ki in data set [1] and in data set [2] (setting [3]) was less than 0.5 µM throughout.
As to `COc1ccc2c(c1)CCc1cc(C)ccc1/C2=C(\C)c1cccc(NS(C)(=O)=O)c1` [Example 829], the inhibitory constant (Ki) in data set [1] and in data set [2] (setting [3]) was less than 0.5 µM throughout.
For `CC(=C1c2ccc(C)cc2CCc2cc(F)ccc21)c1cccc(NS(C)(=O)=O)c1` [Example 830], the Ki in data set [1] and in data set [2] (setting [3]) was less than 0.5 µM each time.
Take `C/C(=C1\c2ccc(C)cc2CCc2cc(F)ccc21)c1cccc(NS(C)(=O)=O)c1` [Example 831]: the Ki in data set [1] and in data set [2] (setting [3]) was less than 0.5 µM in each case.
Regarding `C/C(=C1/c2ccc(C)cc2CCc2cc(F)ccc21)c1cccc(NS(C)(=O)=O)c1` [Example 832], the Ki in data set [1] and in data set [2] (setting [3]) was less than 0.5 µM in each case.
With `CCC(=C1c2ccc(C)cc2CCc2cc(F)ccc21)c1cccc(NS(C)(=O)=O)c1` [Example 833], the inhibitory constant (Ki) in data set [1] and in data set [2] (setting [3]) was less than 0.5 µM each time.
For `C/C(=C1/c2ccc(F)cc2CCc2ncccc21)c1cc(F)cc(NS(C)(=O)=O)c1` [Example 836], the Ki in data set [1] and in data set [2] (setting [3]) was less than 0.5 µM in each case.
Turning to `C/C(=C1\c2ccc(F)cc2CCc2ncccc21)c1cc(F)cc(NS(C)(=O)=O)c1` [Example 837], the inhibition constant Ki in data set [1] and in data set [2] (setting [3]) was less than 0.5 µM in each case.
In the case of `C/C(=C1/c2ccccc2COc2cc(F)ccc21)c1ccc2[nH]c(=O)[nH]c2c1` [Example 838], the inhibition constant Ki in data set [1] and in data set [2] (setting [3]) was less than 0.5 µM throughout.
With `C/C(=C1\c2ccccc2COc2cc(F)ccc21)c1ccc2[nH]c(=O)[nH]c2c1` [Example 839], the Ki in data set [1] and in data set [2] (setting [3]) was less than 0.5 µM in each case.
In the case of `COc1ccc2c(c1)CSc1ccccc1C2=C(C)c1cccc(NS(C)(=O)=O)c1` [Example 840], the Ki in data set [1] and in data set [2] (setting [3]) was less than 0.5 µM in each case.
For the compound `COc1ccc2c(c1)CSc1ccccc1/C2=C(/C)c1cccc(NS(C)(=O)=O)c1` [Example 841], the Ki in data set [1] and in data set [2] (setting [3]) was less than 0.5 µM each time.
Turning to `COc1ccc2c(c1)CSc1ccccc1/C2=C(\C)c1cccc(NS(C)(=O)=O)c1` [Example 842], the inhibitory constant (Ki) in data set [1] and in data set [2] (setting [3]) was less than 0.5 µM each time.

In general, melting point refers to the temperature, or range, at which the solid turns liquid. Usually Ki stands for a measure of affinity in units of concentration, obtained from inhibition or displacement.
